For one series, the target named is Cytochrome P450 2C9 (Homo sapiens, UniProt P11712).
Another series addresses T1, Cytochrome P450 1A2 (Homo sapiens, UniProt P05177).
T1 sequence (P05177 whole entry): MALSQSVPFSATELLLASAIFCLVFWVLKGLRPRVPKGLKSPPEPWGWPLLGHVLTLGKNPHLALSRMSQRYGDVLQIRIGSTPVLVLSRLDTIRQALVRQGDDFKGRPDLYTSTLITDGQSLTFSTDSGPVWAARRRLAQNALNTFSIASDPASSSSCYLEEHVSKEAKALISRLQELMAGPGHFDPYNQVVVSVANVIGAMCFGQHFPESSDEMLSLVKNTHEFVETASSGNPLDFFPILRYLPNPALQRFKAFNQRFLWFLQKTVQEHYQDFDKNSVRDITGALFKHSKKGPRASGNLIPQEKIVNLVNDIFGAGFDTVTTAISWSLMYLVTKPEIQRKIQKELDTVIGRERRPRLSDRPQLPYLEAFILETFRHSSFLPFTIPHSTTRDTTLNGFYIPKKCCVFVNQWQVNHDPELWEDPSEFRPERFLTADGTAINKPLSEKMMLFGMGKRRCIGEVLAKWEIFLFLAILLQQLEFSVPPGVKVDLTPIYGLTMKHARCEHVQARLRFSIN

A short description of series [1]: C. albicans growth with fluconazole, confirmation, fluorescence, retest (AID 2467). The series is classed as functional, cell-based.
For series [2], the system named is Streptococcus sp. 'group A'. As to the kind of experiment: growth inhibition of control SK(-) GAS strain, dose response, counter-screen for streptokinase expression inhibitor project, luminescence, kanamycin, BacTiterGlo, confirmation (AID 1900). The series is classed as functional, organism-based. (In general: The purpose of a counterscreen is to sort out artefacts and off-target activity.)

The target of another series is T2, Streptokinase A (Streptococcus pyogenes serotype M1, UniProt P10520).
T2 sequence (P10520 whole entry): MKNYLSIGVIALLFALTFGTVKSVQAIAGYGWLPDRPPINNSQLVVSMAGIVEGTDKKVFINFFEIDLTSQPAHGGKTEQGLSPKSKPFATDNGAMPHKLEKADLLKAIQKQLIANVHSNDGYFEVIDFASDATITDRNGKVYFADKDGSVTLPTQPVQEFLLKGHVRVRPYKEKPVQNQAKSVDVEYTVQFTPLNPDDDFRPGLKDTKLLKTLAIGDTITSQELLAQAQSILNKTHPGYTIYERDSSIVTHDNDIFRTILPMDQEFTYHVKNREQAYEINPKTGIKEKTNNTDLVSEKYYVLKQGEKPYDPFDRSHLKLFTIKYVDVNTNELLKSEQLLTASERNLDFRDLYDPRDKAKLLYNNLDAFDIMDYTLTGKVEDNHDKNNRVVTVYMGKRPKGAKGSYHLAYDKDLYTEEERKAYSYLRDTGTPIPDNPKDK
Kind of series: S. pyogenes streptokinase expression inhibitors, potency, dose response, plasminogen activation absorbance, OD405 (AID 1914).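 Note: secreted streptokinase activity via plasminogen activation per viability signal from cell pellet.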 The series is classed as functional, Streptococcus pyogenes M1 GAS.

A short description of series [3]: NIH-3T3 fibroblast cytotoxicity, dose response, cytotoxicity control, cell-based, fluorescence, Alamar Blue, secondary assay (AID 2327).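 Note: NIH-3T3 mouse fibroblasts cultured with fluconazole at 8 µg/mL.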 The series is classed as functional. (In general: Resazurin is reduced to fluorescent resorufin, in cell work by metabolically active cells.)
Another series has as its system Streptococcus. Kind of series: Group A Streptococcus viability loss, dose response, counter-screen for streptokinase expression inhibitor project, luminescence, BacTiterGlo (AID 1915).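 Note: potency for reduction of bacterial viability or growth.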 The series is classed as functional, organism-based.
The target in a further series is Cytochrome P450 3A4 (Homo sapiens, UniProt P08684).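 Note: CYP3A4 tested as one member of a cytochrome P450 panel screen.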
A short description of series [4]: HepG2 cell cytotoxicity, dose response, cytotoxicity control for Shn3 inhibitor project, CellTiter-Glo, cherry-picked (AID 624134). The series is classed as functional, cell-based. In general terms: Cellular ATP, detected with luciferase, serves as a proxy for viable cell number.
The nature of series [5]: control 3'UTR Renilla luciferase suppression, dose response, counter-screen for Shn3 inhibitor project, cell-based, Clone20-Shn3RL, cherry-picked (AID 624133). The series is classed as functional.
Series [6] in a line: Shn3 3'UTR reporter inhibitors, dose response, cell-based, Clone20 osteoblasts, firefly luciferase, cherry-picked (AID 624132).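 Note: firefly luciferase luminescence from reporter carrying the Shn3 3'UTR in osteoblasts.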 The series is classed as functional.
In series [7] the target is T3, Corticotropin-releasing factor receptor 2/Corticotropin-releasing factor-binding protein (Homo sapiens, UniProt P24387+Q13324).
T3 sequence (Q13324 whole entry): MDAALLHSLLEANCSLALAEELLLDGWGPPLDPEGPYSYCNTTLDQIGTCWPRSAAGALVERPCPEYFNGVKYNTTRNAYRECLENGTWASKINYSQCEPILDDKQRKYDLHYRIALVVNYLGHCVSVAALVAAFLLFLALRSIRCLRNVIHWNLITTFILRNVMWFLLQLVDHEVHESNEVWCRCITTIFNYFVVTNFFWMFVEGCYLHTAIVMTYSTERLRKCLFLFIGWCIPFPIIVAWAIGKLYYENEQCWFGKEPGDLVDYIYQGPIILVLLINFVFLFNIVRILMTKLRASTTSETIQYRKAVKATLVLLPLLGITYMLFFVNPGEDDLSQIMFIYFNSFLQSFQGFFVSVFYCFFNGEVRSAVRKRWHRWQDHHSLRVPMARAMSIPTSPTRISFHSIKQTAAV
T3 sequence (P24387 whole entry): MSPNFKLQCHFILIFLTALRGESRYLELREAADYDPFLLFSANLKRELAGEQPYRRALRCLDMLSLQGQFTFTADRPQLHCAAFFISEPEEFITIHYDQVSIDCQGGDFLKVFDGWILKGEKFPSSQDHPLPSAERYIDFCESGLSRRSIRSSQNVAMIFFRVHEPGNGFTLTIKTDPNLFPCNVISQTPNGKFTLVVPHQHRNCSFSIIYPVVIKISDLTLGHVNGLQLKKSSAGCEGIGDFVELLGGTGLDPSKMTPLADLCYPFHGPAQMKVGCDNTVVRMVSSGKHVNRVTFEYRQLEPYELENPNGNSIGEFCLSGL
Kind of series: activators of CRF receptor 2 with binding protein – uHTS hits, confirmation (AID 602473). The series is classed as functional. The conditions noted are these: read-out: EC50_Mean.

Series [8] addresses T3, Corticotropin-releasing factor receptor 2/Corticotropin-releasing factor-binding protein. As to the kind of experiment: Dose Response confirmation of uHTS hits for small molecule antagonists of the CRF-binding protein and CRF-R2 receptor complex. The series is classed as functional. The conditions noted are these: read-out: IC50_Mean.
The target of another series is Cytochrome P450 2C19 (Homo sapiens, UniProt P33261). Kind of series: Cytochrome panel assay with activity outcomes. Panel member name: p450-cyp2c19 Compounds with AC50 equal or less than 10 uM are considered active. The series is classed as functional.
Series [9] is described as follows: growth suppression of PTEN-null colon cells, dose response, cell-based, HCT116 PTEN knockout (AID 1047).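 Note: HCT116 colon tumor cells with PTEN knocked out; cells exposed to compound for 60 hours before readout; potency for loss of cell viability measured by luminescence.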 The series is classed as functional.
Series [10] in a line: growth suppression of beta-catenin-knockout colon cells, dose response, cell-based, HCT116, human colon tumor (AID 1045).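 Note: HCT116 colon tumor cells with beta catenin knocked out; cells exposed to compound for 60 hours.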 The series is classed as functional.

Structures are written as SMILES. Active and inactive are the calls of the source. Some results are limits rather than exact numbers.

Cytochrome P450 2C9, sequence (P11712 whole entry): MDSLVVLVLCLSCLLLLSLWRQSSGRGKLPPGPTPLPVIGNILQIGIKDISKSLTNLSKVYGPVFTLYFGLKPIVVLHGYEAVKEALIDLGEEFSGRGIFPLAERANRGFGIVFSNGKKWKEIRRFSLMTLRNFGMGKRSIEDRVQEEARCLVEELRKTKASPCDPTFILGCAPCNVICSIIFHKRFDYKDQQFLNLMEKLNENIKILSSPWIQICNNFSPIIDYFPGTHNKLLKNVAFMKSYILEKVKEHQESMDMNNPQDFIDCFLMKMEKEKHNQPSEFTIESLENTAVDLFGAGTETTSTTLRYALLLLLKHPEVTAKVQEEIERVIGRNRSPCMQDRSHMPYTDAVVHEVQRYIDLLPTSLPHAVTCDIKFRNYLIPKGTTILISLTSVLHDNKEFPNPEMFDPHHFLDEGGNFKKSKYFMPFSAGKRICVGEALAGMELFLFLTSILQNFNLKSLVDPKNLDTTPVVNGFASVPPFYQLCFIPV
Cytochrome P450 2C19, sequence (P33261 whole entry): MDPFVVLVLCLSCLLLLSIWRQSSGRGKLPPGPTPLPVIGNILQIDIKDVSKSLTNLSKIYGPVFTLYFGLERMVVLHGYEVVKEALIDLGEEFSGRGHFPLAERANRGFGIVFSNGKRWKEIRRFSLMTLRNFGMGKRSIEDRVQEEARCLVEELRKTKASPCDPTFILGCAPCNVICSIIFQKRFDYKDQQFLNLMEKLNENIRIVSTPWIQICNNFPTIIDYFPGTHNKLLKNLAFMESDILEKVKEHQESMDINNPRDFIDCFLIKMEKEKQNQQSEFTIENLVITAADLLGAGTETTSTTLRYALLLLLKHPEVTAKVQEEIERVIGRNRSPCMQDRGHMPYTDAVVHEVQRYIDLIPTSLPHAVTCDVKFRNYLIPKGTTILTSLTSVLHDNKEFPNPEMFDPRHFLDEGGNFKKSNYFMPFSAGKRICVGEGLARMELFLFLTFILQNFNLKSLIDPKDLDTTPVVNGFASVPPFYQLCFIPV
Cytochrome P450 3A4, sequence (P08684 whole entry): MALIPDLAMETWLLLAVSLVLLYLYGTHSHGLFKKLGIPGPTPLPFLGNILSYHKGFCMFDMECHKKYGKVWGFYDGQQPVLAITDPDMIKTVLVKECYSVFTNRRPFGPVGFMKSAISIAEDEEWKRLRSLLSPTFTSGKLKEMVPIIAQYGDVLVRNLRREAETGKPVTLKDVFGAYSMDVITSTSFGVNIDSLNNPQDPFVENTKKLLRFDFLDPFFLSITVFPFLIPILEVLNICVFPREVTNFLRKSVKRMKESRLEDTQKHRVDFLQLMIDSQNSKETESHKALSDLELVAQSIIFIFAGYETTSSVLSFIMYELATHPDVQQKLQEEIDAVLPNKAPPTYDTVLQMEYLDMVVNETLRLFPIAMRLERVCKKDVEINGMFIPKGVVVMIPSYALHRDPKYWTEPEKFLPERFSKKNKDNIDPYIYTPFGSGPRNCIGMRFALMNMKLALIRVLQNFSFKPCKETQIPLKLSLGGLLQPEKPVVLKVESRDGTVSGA

Consider `CCOC(=O)c1c(NC(=O)CCc2ccc(CC)o2)sc(C)c1C`, for which, at Cytochrome P450 2C9, the AC50 – broadly, the concentration giving half of the maximal activity seen – is “inconclusive”.

With `O=C(NCc1ccccn1)C1CC(c2ccc(Cl)c(Cl)c2)=NO1` (stereo not given), the concentration at half-maximal activity (AC50) is 4.47 µM (inconclusive) at Cytochrome P450 1A2 and “inconclusive” on Cytochrome P450 2C9.

In the case of `Cc1nnc(NC(=O)c2ccc(S(=O)(=O)N(C)Cc3ccccc3)cc2)o1`, the EC50 in series [1] is 2.21 µM (active); in series [2], 4.98 µM (active); on Streptokinase A, > 150 µM (not active); in series [3] it was 21.7 µM (active); in the series with Streptococcus, 17 µM (active).

On to `Cc1ccc(-n2nnnc2SCC(=O)NNC(=O)c2ccco2)c(C)c1`, for which, at Cytochrome P450 2C9, the concentration at half-maximal activity (AC50) entry is “inconclusive”.

Turning to `NC(S)=Nc1cccc2cccnc12`, the concentration at half-maximal activity (AC50) result on Cytochrome P450 2C9 is on record as “inconclusive”.

Regarding `CCOc1ccc(C(=O)O)cc1OC`, the AC50 result on Cytochrome P450 2C9 is given as “inconclusive”.

As to `Cc1cc(C)c(C#N)c(SC[S+]([O-])c2ccc(C(C)(C)C)cc2)n1` (stereo not given), the AC50 entry at Cytochrome P450 2C9 is reported as “inconclusive”.

Consider `CCN(CC)C(=O)C1CCN(S(=O)(=O)c2ccc3oc4ccccc4c3c2)CC1`, for which the AC50 was 3.98 µM (inconclusive) at Cytochrome P450 3A4; > 70 µM (inactive) in series [4]; 10.1 µM (active) in series [5]; 3.96 µM (active) in [6]; “inconclusive” on Cytochrome P450 2C9.

On to `COc1ccc(OC)c(S(=O)(=O)N2CCC(C(=O)Nc3ccc(C)c(C)c3)CC2)c1`, for which the half-maximal activity concentration (AC50) is 12.6 µM (inconclusive) on Cytochrome P450 1A2 and “inconclusive” at Cytochrome P450 2C9.

`Cc1nc(N)sc1-c1csc(N(C)c2ccc(O)cc2)n1`: the EC50 was 5.24 µM (active) in [2], > 150 µM (not active) at Streptokinase A, > 53 µM (inactive) in series [7] and 95.2 µM (active) in the series with Streptococcus. The IC50 in series [8] is > 47.1 µM (inactive).

In the case of `Cc1ccc2cc3cc(C(=O)N4CCC5(CC4)OCCO5)oc3nc2c1`, the AC50 entry at Cytochrome P450 2C9 was “inconclusive”.

`CSC(=Nc1ccc(F)c(Cl)c1)NS(=O)(=O)c1cccs1`: the EC50 in [1] was 0.805 µM (active); in [3], > 150 µM (inactive).

Take `CCN=C(S)N1CCC(NC(=O)C2CCCCC2)CC1`: the AC50 result on Cytochrome P450 2C9 and at Cytochrome P450 2C19 was “inconclusive” in each case.

With `CC1(C)CC(=O)C=C(Nc2ccc([N+](=O)[O-])cc2)C1`, the values for the EC50 in series [1] and in series [3] were 2.93 µM (active) and > 160 µM (inactive), respectively.

With `COC(=O)N/N=C\C=C\c1ccc2c(c1)OCO2`, at Cytochrome P450 2C9, the AC50 result is given as “inconclusive”.

As to `CCOc1ccc(/C=N/Nc2nc(N3CCCC3)nc(N3CCCC3)n2)cc1OC`, the AC50 at Cytochrome P450 1A2 was 39.8 µM (inconclusive); at Cytochrome P450 2C9 it was “inconclusive”; on Cytochrome P450 2C19 (read-out: AC50), 39.8 µM (inconclusive).

`CCN(CC)c1ccc(/C=N/Nc2nc3ccccc3[nH]2)cc1`: the EC50 was > 38 µM (not active) in series [1], 2.96 µM (active) in series [9], 6.64 µM (active) in series [3] and 2.76 µM (active) in series [10].

With `CO/N=C/C(=C\Nc1ccc(Cl)cc1Cl)c1ncc(C(F)(F)F)cc1Cl`, in series [3], the EC50 was > 160 µM (inconclusive).

These data come from ChEMBL document CHEMBL1201862, “PubChem BioAssay data set” (2004).
